Data as given in patent US20020025918A1, “Methods of using helical peptides in plants” (priority 1987, published 2002).
Values after ≈ are worked out from the molar mass of the structure shown. Read-outs that look alike come from different tables or passages of the source. Residues, ends and D or L forms follow the SMILES beside them.

Tests used:
[1] = test system: E. coli; test: MBC and MIC susceptibility test; format: cell-based; settings: Table III
[2] = test system: P. aeruginosa; test: MBC and MIC susceptibility test; format: cell-based; settings: Table III, P. aeuriginosa (−)
[3] = test system: S. aureus; test: MBC and MIC susceptibility test; format: cell-based; settings: Table III, S. aureus (+)
[4] = test system: B-16 myeloma cells; test: B-16 cell viability, trypan blue exclusion; format: cell-based; settings: for % Cell Viability: 100 μM peptide, one hour
Protocol: (§1) B-16 myeloma cells and normal 3T3 […] fibroblasts were either permitted to attach to the test plate, or treated with trypsin to free the cells from the plastic dish prior to treatment. Cells were then treated with 100 μM lytic peptide for one hour as described above, and cell viability was then determined by trypan blue exclusion.

[5] = 3T3 fibroblast viability, trypan blue exclusion; format: cell-based; settings: human, 100 μM peptide, one hour, read-out: % Cell Viability
Protocol: as §1

[6] = test system: Human mononuclear leukocytes; test: 3H-thymidine uptake in WBC (proliferation); format: cell-based
Protocol: Human mononuclear leukocytes were isolated from whole blood in the following manner. Blood was collected in vacutainer tubes containing EDTA, and was then diluted with an equal valume of calcium and magnesium-free PBS and layered over Histopaque resin (GIBCO). The tubes were centrifuged for 30 minutes at 25° C. and 450× g. The plasma and platelets above the banded layer of cells in the resulting gradient were removed and discarded. The banded white blood cells were removed to fresh test tubes, washed 3 times with PBS, and resuspended in RPMI medium containing 10% fetal bovine serum (FBS), mercaptoethanol, and penicillin and streptomycin as antibiotics. The cells were then counted and resuspended to a final concentration of 3×10^6 cells/ml.
To each well of a 96 well flat-bottomed microtiter plate was aded 100 μl of cells (3×10^5 cells). Treatment groups were set in quadruplicate samples. The appropriate concentration of test peptide and/or the mitogen hytohemaglutinate (PHA), was added in a total volume of 100 μl of medium to the test wells. The plates were then incubated at 37° C. and 5% CO2 for a duration of 72 hours. At the end of the incubation period, 1 μCi of 3H-thymidine in 1 μl TRIS-HCI, PH8 was added to each well, and the plates incubated an additional 18 hours.
Cellular DNA was harvested onto glass fiber filters using a semi-automatic cell harvester. The glass filters were then placed into vials containing scintillation fluid, and the samples were counted in a scintillation counter. The uptake of 3H-thymidine is an indiator of cell proliferation, thus the higher the number of counts in the sample, the greater the proliferative activity of the cells. The results in Table XI indicate that low dose of the synthetic peptides of this invention stimulate cell growth.

[7] = test system: EL-4 lymphoma cells; test: EL-4 cell killing, trypan blue exclusion; settings: one hour, 37° C.
[8] = test system: E. coli; test: Synergy of lytic peptide with antibiotics
[9] = test system: S. auerus; test: Synergy of lytic peptide with antibiotics
[10] = Role of cytoskeletal structure in susceptibility to lysis, FDD cell viability; settings: donkey, primary fetal donkey dermal cells (FDD), % Viability of Treated DD Cells, 100 μM peptide 15 minutes
[11] = Manitou-1 0.01 μM + Streptomycin 0.5 μM
[12] = Manitou-1 0.01 μM + Streptomycin 5.0 μM
[13] = Manitou-1 0.01 μM + Tetracycline 0.5 μM
[14] = Manitou-1 0.01 μM + Tetracycline 5.0 μM
[15] = Manitou-1 0.01 μM, no antibiotic
[16] = Manitou-1 0.10 μM + Streptomycin 0.5 μM
[17] = Manitou-1 0.10 μM + Streptomycin 5.0 μM
[18] = Manitou-1 0.10 μM + Tetracycline 0.5 μM
[19] = Manitou-1 0.10 μM + Tetracycline 5.0 μM
[20] = Manitou-1 0.10 μM, no antibiotic
[21] = Manitou-1 1.0 μM + Streptomycin 0.5 μM
[22] = Manitou-1 1.0 μM + Streptomycin 5.0 μM
[23] = Manitou-1 1.0 μM + Tetracycline 0.5 μM
[24] = Manitou-1 1.0 μM + Tetracycline 5.0 μM
[25] = Manitou-1 1.0 μM, no antibiotic

Work on CSCC[C@H](NC(=O)[C@H](CCCNC(=N)N)NC(=O)[C@H](CCCCN)NC(=O)[C@@H](N)CCSC)C(=O)N[C@H](C(=O)N[C@@H](CO)C(=O)N[C@@H](Cc1c[nH]c2ccccc12)C(=O)N[C@@H](CO)C(=O)N[C@@H](Cc1ccccc1)C(=O)N[C@@H](CCCCN)C(=O)N[C@@H](CCCCN)C(=O)N[C@@H](CC(C)C)C(=O)N[C@@H](CCCCN)C(=O)N[C@H](C(=O)N[C@@H](CCSC)C(=O)N[C@@H](CCCCN)C(=O)N[C@@H](CCCCN)C(=O)N[C@@H](CC(C)C)C(=O)N[C@@H](CC(C)C)C(=O)N[C@@H](CC(C)C)C(=O)N[C@@H](CC(C)C)C(=O)N[C@@H](CC(C)C)C(=O)N[C@@H](CC(C)C)C(=O)N[C@@H](CS)C(=O)N[C@H](C(=O)N[C@@H](Cc1ccccc1)C(=O)N[C@@H](CC(C)C)C(=O)N[C@H](C(=O)N[C@@H](CCCCN)C(=O)N[C@@H](CO)C(N)=O)C(C)C)C(C)C)[C@@H](C)O)C(C)C [Manitou-1] (H-MKRMVSWSFKKLKTMKKLLLLLLCVFLVKS-NH2) yielded an MBC [1] of 8 µM (≈ 28.9 µg/mL), an MBC [2] of 16 µM (≈ 57.8 µg/mL) and an MBC [3] of 32 µM (≈ 116 µg/mL). The “% Cell Viability” value ([4]; B-16 Monolayer) was 19%, the “% Cell Viability” value ([4]; B-16 Suspension (trypsinized)) was 0% and the “selective killing of cancer cells in monolayer culture (in words)” value ([4]; B-16 versus 3T3 attached in monolayer) was “more effective than LSB-37 in selectively killing cancer cells”. The viability at 1 h, 100 μM ([5]; normal 3T3 human fibroblasts, 3T3 Suspension (trypsinized)) was 5%, the viability at 1 h, 100 μM ([5]; 3T3 Monolayer) was 85% and the “3H-Thymidine Uptake in WBC, % of Control” value ([6]; peptide 10 μM, PHA 0 mg) was 239%. The “3H-Thymidine Uptake in WBC, % of Control” value ([6]; peptide 10 μM, PHA 0.5 mg) was 191%, the “3H-Thymidine Uptake in WBC, % of Control” value ([6]; peptide 10 μM, PHA 5.0 mg) was 125% and the “3H-Thymidine Uptake in WBC, % of Control” value ([6]; peptide 25 μM, PHA 0 mg) was 325%. For the same compound, the “3H-Thymidine Uptake in WBC, % of Control” value ([6]; peptide 25 μM, PHA 0.5 mg) was 153%, the “3H-Thymidine Uptake in WBC, % of Control” value ([6]; peptide 25 μM, PHA 5.0 mg) was 143% and the “3H-Thymidine Uptake in WBC, % of Control” value ([6]; peptide 50 μM, PHA 0 mg) was 62%. For the same compound, the “3H-Thymidine Uptake in WBC, % of Control” value ([6]; peptide 50 μM, PHA 0.5 mg) was 61%, the “3H-Thymidine Uptake in WBC, % of Control” value ([6]; peptide 50 μM, PHA 5.0 mg) was 63% and the “3H-Thymidine Uptake in WBC, % of Control” value ([6]; peptide 100 μM, PHA 0 mg) was 39%. For the same compound, the “3H-Thymidine Uptake in WBC, % of Control” value ([6]; peptide 100 μM, PHA 0.5 mg) was 8%, the “3H-Thymidine Uptake in WBC, % of Control” value ([6]; peptide 100 μM, PHA 5.0 mg) was 0% and the “% EL-4 Cells Killed” value ([7]; 10 μM peptide) was 5%. The “% EL-4 Cells Killed” value ([7]; 25 μM peptide) was 28%, the “% EL-4 Cells Killed” value ([7]; 50 μM peptide) was 78% and the “% EL-4 Cells Killed” value ([7]; 100 μM peptide) was 100%. For the same compound, the “% Cell Death In E. coli” value [8, 11] was 99.9%, the “% Cell Death In E. coli” value [8, 12] was 58% and the “% Cell Death In E. coli” value [8, 13] was 68%. For the same compound, the “% Cell Death In E. coli” value [8, 14] was 88%, the “% Cell Death In E. coli” value [8, 15] was 0% and the “% Cell Death In E. coli” value [8, 16] was 68%. The “% Cell Death In E. coli” value [8, 17] was 99.9%, the “% Cell Death In E. coli” value [8, 18] was 0% and the “% Cell Death In E. coli” value [8, 19] was 58%. For the same compound, the “% Cell Death In E. coli” value [8, 20] was 0%, the “% Cell Death In E. coli” value [8, 21] was 0% and the “% Cell Death In E. coli” value [8, 22] was 99.9%. For the same compound, the “% Cell Death In E. coli” value [8, 23] was 0%, the “% Cell Death In E. coli” value [8, 24] was 47% and the “% Cell Death In E. coli” value [8, 25] was 0%. For the same compound, the “interaction with streptomycin in E. Coli (in words)” value ([8]; Manitou-1 with streptomycin) was “synergistic action”, the “% Cell Death In S. auerus” value [9, 11] was 0% and the “% Cell Death In S. auerus” value [9, 12] was 87%. For the same compound, the “% Cell Death In S. auerus” value [9, 13] was 0%, the “% Cell Death In S. auerus” value [9, 14] was 35% and the “% Cell Death In S. auerus” value [9, 15] was 0%. For the same compound, the “% Cell Death In S. auerus” value [9, 16] was 0%, the “% Cell Death In S. auerus” value [9, 17] was 95% and the “% Cell Death In S. auerus” value [9, 18] was 0%. For the same compound, the “% Cell Death In S. auerus” value [9, 19] was 35%, the “% Cell Death In S. auerus” value [9, 20] was 0% and the “% Cell Death In S. auerus” value [9, 21] was 0%. The “% Cell Death In S. auerus” value [9, 22] was 86%, the “% Cell Death In S. auerus” value [9, 23] was 0% and the “% Cell Death In S. auerus” value [9, 24] was 35%. The “% Cell Death In S. auerus” value [9, 25] was 0%, the viability at 15 minutes, 100 μM ([10]; Cold-treated (4° C.)) was 8% and the viability at 15 minutes, 100 μM ([10]; Warm-treated (37° C.)) was 78%. For the same compound, the viability at 15 minutes, 100 μM ([10]; with colchicine 0.1 μg/ml (cytoskeletal inhibitor), Colchicine-treated (0.1 μg/ml)) was 30% and the viability at 15 minutes, 100 μM ([10]; with cytochalasin D 5 μg/ml (cytoskeletal inhibitor), Cytochalasin D-treated (5 μg/ml)) was 23%.
